The supplement of paper PMC10307832

Columns and labels:
Assay in all cases: relative viability (nuclei count vs DMSO), 5 days (fraction); higher = more cells survive
NCI-H1395 = test system: NCI-H1395
In short: (§1)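 Medians of duplicate plates are given as relative viability. That measure is the nuclei count in treated wells divided by the count in vehicle wells. Counts were taken on 4× images of lung cancer cell lines in 1536-well plates, 5 days after pin-tool dosing the day after seeding with one drug alone or a fixed anchor-drug dose plus five library-drug doses (not always all listed) in √10 steps.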

COR-L 105 = test system: COR-L 105
In short: as §1

NCI-H2087 = test system: NCI-H2087
In short: as §1

SW 1573 = test system: SW 1573
In short: as §1

NCI-H1666 = test system: NCI-H1666
In short: as §1

NCI-H1437 = test system: NCI-H1437
In short: as §1

EKVX = test system: EKVX
In short: as §1

HOP-62 = test system: HOP-62
In short: as §1

LU99A = test system: LU99A
In short: as §1

PC-3 [JPC-3] = test system: PC-3 [JPC-3]
In short: as §1

NCI-H358 = test system: NCI-H358
In short: as §1

LCLC-97TM1 = test system: LCLC-97TM1
In short: as §1

HCC-827 = test system: HCC-827
In short: as §1

201T = test system: 201T
In short: as §1

NCI-H2342 = test system: NCI-H2342
In short: as §1

BEN = test system: BEN
In short: as §1

H3255 = test system: H3255
In short: as §1

HCC-44 = test system: HCC-44
In short: as §1

NCI-H2085 = test system: NCI-H2085
In short: as §1

EPLC-272H = test system: EPLC-272H
In short: as §1

NCI-H1975 = test system: NCI-H1975
In short: as §1

LOU-NH91 = test system: LOU-NH91
In short: as §1

NCI-H647 = test system: NCI-H647
In short: as §1

O=C(O)c1ccc(-c2c[nH]c3ncc(-c4ccccc4)cc23)cc1C1CCCC1 + Nc1nc2[nH]cc(CCc3ccc(C(=O)N[C@@H](CCC(=O)O)C(=O)O)cc3)c2c(=O)[nH]1 [Pemetrexed] (partner 0.2 µM)
relative viability (NCI-H1395; first compound 0.04 µM): 0.949
relative viability (NCI-H1395; first compound 0.1265 µM): 1.14
relative viability (NCI-H1395; first compound 0.4 µM): 0.774
relative viability (NCI-H1395; first compound 1.265 µM): 0.858
relative viability (COR-L 105; first compound 0.04 µM): 1.06
relative viability (COR-L 105; first compound 0.1265 µM): 1.19
relative viability (COR-L 105; first compound 0.4 µM): 1.19
relative viability (COR-L 105; first compound 1.265 µM): 1.08
relative viability (NCI-H2087; first compound 0.04 µM): 0.576
relative viability (NCI-H2087; first compound 0.1265 µM): 0.652
relative viability (NCI-H2087; first compound 0.4 µM): 0.653
relative viability (NCI-H2087; first compound 1.265 µM): 0.585
relative viability (SW 1573; first compound 0.04 µM): 0.808
relative viability (SW 1573; first compound 0.1265 µM): 0.762
relative viability (SW 1573; first compound 0.4 µM): 0.779
relative viability (SW 1573; first compound 1.265 µM): 0.63
relative viability (NCI-H1666; first compound 0.04 µM): 0.753
relative viability (NCI-H1666; first compound 0.1265 µM): 0.917
relative viability (NCI-H1666; first compound 0.4 µM): 0.879
relative viability (NCI-H1666; first compound 1.265 µM): 0.809
relative viability (NCI-H1437; first compound 0.04 µM): 0.338
relative viability (NCI-H1437; first compound 0.1265 µM): 0.33
relative viability (NCI-H1437; first compound 0.4 µM): 0.311
relative viability (NCI-H1437; first compound 1.265 µM): 0.295
relative viability (EKVX; first compound 0.04 µM): 0.397
relative viability (EKVX; first compound 0.1265 µM): 0.576
relative viability (EKVX; first compound 0.4 µM): 0.376
relative viability (EKVX; first compound 1.265 µM): 0.409
relative viability (HOP-62; first compound 0.04 µM): 0.327
relative viability (HOP-62; first compound 0.1265 µM): 0.389
relative viability (HOP-62; first compound 0.4 µM): 0.307
relative viability (HOP-62; first compound 1.265 µM): 0.351
relative viability (LU99A; first compound 0.04 µM): 0.166
relative viability (LU99A; first compound 0.1265 µM): 0.192
relative viability (LU99A; first compound 0.4 µM): 0.187
relative viability (LU99A; first compound 1.265 µM): 0.202
relative viability (PC-3 [JPC-3]; first compound 0.04 µM): 1.05
relative viability (PC-3 [JPC-3]; first compound 0.1265 µM): 1.18
relative viability (PC-3 [JPC-3]; first compound 0.4 µM): 1.1
relative viability (PC-3 [JPC-3]; first compound 1.265 µM): 1.03
relative viability (NCI-H358; first compound 0.04 µM): 0.17
relative viability (NCI-H358; first compound 0.1265 µM): 0.186
relative viability (NCI-H358; first compound 0.4 µM): 0.181
relative viability (NCI-H358; first compound 1.265 µM): 0.148
relative viability (LCLC-97TM1; first compound 0.04 µM): 0.196
relative viability (LCLC-97TM1; first compound 0.1265 µM): 0.204
relative viability (LCLC-97TM1; first compound 0.4 µM): 0.157
relative viability (LCLC-97TM1; first compound 1.265 µM): 0.153
relative viability (HCC-827; first compound 0.04 µM): 0.198
relative viability (HCC-827; first compound 0.1265 µM): 0.28
relative viability (HCC-827; first compound 0.4 µM): 0.287
relative viability (HCC-827; first compound 1.265 µM): 0.163
relative viability (201T; first compound 0.04 µM): 0.342
relative viability (201T; first compound 0.1265 µM): 0.326
relative viability (201T; first compound 0.4 µM): 0.357
relative viability (201T; first compound 1.265 µM): 0.343
relative viability (NCI-H2342; first compound 0.04 µM): 0.804
relative viability (NCI-H2342; first compound 0.1265 µM): 0.816
relative viability (NCI-H2342; first compound 0.4 µM): 0.765
relative viability (NCI-H2342; first compound 1.265 µM): 0.74
relative viability (BEN; first compound 0.04 µM): 0.598
relative viability (BEN; first compound 0.1265 µM): 0.862
relative viability (BEN; first compound 0.4 µM): 0.792
relative viability (BEN; first compound 1.265 µM): 0.788
relative viability (H3255; first compound 0.04 µM): 0.485
relative viability (H3255; first compound 0.1265 µM): 0.58
relative viability (H3255; first compound 0.4 µM): 0.622
relative viability (H3255; first compound 1.265 µM): 0.582
relative viability (HCC-44; first compound 0.04 µM): 0.654
relative viability (HCC-44; first compound 0.1265 µM): 0.578
relative viability (HCC-44; first compound 0.4 µM): 0.68
relative viability (HCC-44; first compound 1.265 µM): 0.598
relative viability (NCI-H2085; first compound 0.04 µM): 0.821
relative viability (NCI-H2085; first compound 0.1265 µM): 0.951
relative viability (NCI-H2085; first compound 0.4 µM): 0.882
relative viability (NCI-H2085; first compound 1.265 µM): 0.654
relative viability (EPLC-272H; first compound 0.04 µM): 0.369
relative viability (EPLC-272H; first compound 0.1265 µM): 0.336
relative viability (EPLC-272H; first compound 0.4 µM): 0.279
relative viability (EPLC-272H; first compound 1.265 µM): 0.251
relative viability (NCI-H1975; first compound 0.04 µM): 0.301
relative viability (NCI-H1975; first compound 0.1265 µM): 0.298
relative viability (NCI-H1975; first compound 0.4 µM): 0.284
relative viability (NCI-H1975; first compound 1.265 µM): 0.28
relative viability (LOU-NH91; first compound 0.04 µM): 0.419
relative viability (LOU-NH91; first compound 0.1265 µM): 0.404
relative viability (LOU-NH91; first compound 0.4 µM): 0.414
relative viability (LOU-NH91; first compound 1.265 µM): 0.435
relative viability (NCI-H647; first compound 0.04 µM): 0.165
relative viability (NCI-H647; first compound 0.1265 µM): 0.171
relative viability (NCI-H647; first compound 0.4 µM): 0.182
relative viability (NCI-H647; first compound 1.265 µM): 0.148
